The text below walks through data of ChEMBL document CHEMBL1201862, “PubChem BioAssay data set” (2004).

Among the test systems are SW-620; T47D; 786-0; SK-MEL-28; U-251; CCRF-CEM; SNB-19; NCI-H226; SNB-75; SF-295; MDA-MB-435; NCI/ADR-RES; UO-31; SF-539; M14; RXF 393; HT-29; A549; SR.
What all share (experiment): NCI anticancer screen, dose series, 48 h

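Test compounds were applied to cells in 96-well plates for 48 hours at 5 doses. At the GI50, growth is halved.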 The source made the active and inactive calls. Cut-off read from the data, not from the text of the source: active = GI50 up to about 1.1 µM and inactive = higher.

In the case of `NC(=O)Nc1n[nH]c(-c2ccccc2)n1`, the GI50 with SW-620, in the experiment with T47D, in the experiment with 786-0, in the experiment with SK-MEL-28, in the experiment on U-251 and in the experiment on CCRF-CEM was > 100 µM (inactive) throughout. The GI50 with SNB-19 is > 100 µM (inactive); in the experiment on NCI-H226 it was > 100 µM (inactive); in the experiment with SNB-75, > 100 µM (inactive); with SF-295 it was 0.706 µM (active); in the experiment with MDA-MB-435, > 100 µM (inactive); with NCI/ADR-RES, > 100 µM (inactive). The GI50 in the experiment with UO-31, in the experiment on SF-539, in the experiment on M14, with RXF 393, with HT-29 and with A549 was > 100 µM (inactive) in each case.

Turning to `CN(C(=O)Cc1cc(Cl)c(Cl)cc1N=C=S)[C@H]1CCCC[C@@H]1N1CCCC1`, the GI50 in the experiment with SW-620 was 5.47 µM (inactive); in the experiment with T47D it was 16.1 µM (inactive); in the experiment with 786-0, 12.7 µM (inactive); with SR, 1.64 µM (inactive); with SK-MEL-28, 1.39 µM (inactive); in the experiment with U-251, 14.9 µM (inactive). The GI50 is 2.07 µM (inactive) with CCRF-CEM; 13.9 µM (inactive) in the experiment with SNB-19; 14.6 µM (inactive) in the experiment on SNB-75; 16.7 µM (inactive) with SF-295; 6.49 µM (inactive) in the experiment with MDA-MB-435; 17.8 µM (inactive) in the experiment with NCI/ADR-RES. Also, the GI50 with UO-31 is 15.5 µM (inactive); in the experiment with SF-539, 23.6 µM (inactive); with M14, 15.5 µM (inactive); in the experiment with RXF 393, 4.45 µM (inactive); in the experiment on HT-29, 5.94 µM (inactive); in the experiment with A549, 15.4 µM (inactive).

Take `CCCCCCCCCCCCCCCCCCNc1nc(=O)n(C2CC(O)C(COP(=O)(O)OCC(COP(=O)(O)OC3C(CO)OC(n4ccc(N)nc4=O)C3O)OCCCCCCCCCCCCCCCCCC)O2)cc1F` (stereo not given): the GI50 with SW-620 was > 100 µM (inactive); in the experiment on T47D, 80.9 µM (inactive); in the experiment on 786-0, 14.8 µM (inactive); with SK-MEL-28, 69.7 µM (inactive); in the experiment with U-251 it was 13.3 µM (inactive); in the experiment with CCRF-CEM it was 0.402 µM (active). Also, the GI50 is 14.9 µM (inactive) with SNB-19; > 100 µM (inactive) in the experiment on NCI-H226; 80.5 µM (inactive) with SNB-75; > 100 µM (inactive) in the experiment with SF-295; > 100 µM (inactive) with MDA-MB-435; > 100 µM (inactive) with NCI/ADR-RES. In addition, the GI50 is 28.8 µM (inactive) in the experiment with UO-31; 17.4 µM (inactive) with SF-539; 31.7 µM (inactive) in the experiment with M14; 14.5 µM (inactive) with RXF 393; 79.1 µM (inactive) in the experiment with HT-29; 14.5 µM (inactive) with A549.

As for `CCCCNC(=O)c1cc2c(cc1Cl)Sc1nccn1S2(=O)=O`, the GI50 was > 100 µM (inactive) with SW-620; 64 µM (inactive) in the experiment on T47D; 55.6 µM (inactive) in the experiment with 786-0; 57.3 µM (inactive) in the experiment with SR; > 100 µM (inactive) in the experiment with SK-MEL-28; 54.8 µM (inactive) in the experiment with U-251. In addition, the GI50 is 77.6 µM (inactive) in the experiment on CCRF-CEM; > 100 µM (inactive) in the experiment with SNB-19; 17.5 µM (inactive) in the experiment on SNB-75; > 100 µM (inactive) in the experiment with SF-295; 87.1 µM (inactive) with MDA-MB-435; 79.6 µM (inactive) with NCI/ADR-RES. In addition, the GI50 in the experiment with UO-31 is > 100 µM (inactive); in the experiment with SF-539, > 100 µM (inactive); in the experiment with M14, > 100 µM (inactive); in the experiment on RXF 393, 95.9 µM (inactive); with HT-29, > 100 µM (inactive); with A549, > 100 µM (inactive).

In the case of `O=c1c(Sc2c(SCSc3cnc4ccccc4c3Sc3c[nH]c4ccccc4c3=O)cnc3ccccc23)c[nH]c2ccccc12`, the GI50 in the experiment on SW-620 was 44.7 µM (inactive); in the experiment on T47D, > 100 µM (inactive); in the experiment with 786-0, > 100 µM (inactive); in the experiment on SR it was 0.877 µM (active); with SK-MEL-28, 22.9 µM (inactive); in the experiment on U-251 it was 25.5 µM (inactive). In addition, the GI50 in the experiment with CCRF-CEM was 12.7 µM (inactive); in the experiment on SNB-19, 46.6 µM (inactive); in the experiment with SNB-75, > 100 µM (inactive); in the experiment on SF-295 it was > 100 µM (inactive); in the experiment on MDA-MB-435, 31.1 µM (inactive); in the experiment on NCI/ADR-RES, > 100 µM (inactive). Also, the GI50 in the experiment with UO-31 was > 100 µM (inactive); in the experiment with SF-539, > 100 µM (inactive); in the experiment on M14 it was > 100 µM (inactive); in the experiment on HT-29 it was > 100 µM (inactive); in the experiment on A549, > 10 µM (inactive).

As to `CC(C)(C)OC(=O)CC(NC(=O)OC(C)(C)C)C(=O)Oc1ccc([N+](=O)[O-])cc1` (stereo not given), the GI50 in the experiment on SW-620 is > 100 µM (inactive); in the experiment on T47D, 89.5 µM (inactive); in the experiment with 786-0, > 100 µM (inactive); with SK-MEL-28, > 100 µM (inactive); with U-251 it was > 100 µM (inactive); in the experiment with CCRF-CEM, > 100 µM (inactive). The GI50 with SNB-19, in the experiment with NCI-H226, in the experiment on SNB-75, with SF-295, in the experiment with MDA-MB-435 and in the experiment on NCI/ADR-RES was > 100 µM (inactive) throughout. The GI50 in the experiment on UO-31, in the experiment on SF-539, in the experiment on M14, in the experiment with RXF 393, in the experiment on HT-29 and with A549 was > 100 µM (inactive) in each case.

`NC(=O)C1=C(O)C[C@@H]2CC3Cc4cccc(O)c4C(=O)C3=C(O)[C@]2(O)C1=O` (stereo not given in full): the GI50 was 3.57 µM (inactive) in the experiment with SW-620; 2.63 µM (inactive) in the experiment on T47D; 3.24 µM (inactive) with 786-0; 4 µM (inactive) in the experiment with SK-MEL-28; 0.962 µM (active) in the experiment on U-251; 0.873 µM (active) in the experiment with CCRF-CEM. For the same compound, the GI50 is 1.88 µM (inactive) in the experiment with SNB-19; 2.23 µM (inactive) in the experiment on NCI-H226; 2.43 µM (inactive) in the experiment with SNB-75; 1.85 µM (inactive) in the experiment on SF-295; 10.1 µM (inactive) in the experiment on MDA-MB-435; 3.24 µM (inactive) with NCI/ADR-RES. Moreover, the GI50 with UO-31 was 2.9 µM (inactive); in the experiment on SF-539, 1.64 µM (inactive); with M14, 1.84 µM (inactive); in the experiment on RXF 393, 1.51 µM (inactive); in the experiment on HT-29 it was 0.339 µM (active); with A549, 0.592 µM (active).

Regarding `C=CCN1CCC(OC(=O)C(O)(/C=C\CC)C2CCCC2)CC1` (stereo not given), the GI50 in the experiment on T47D, with 786-0, in the experiment on SK-MEL-28, in the experiment on U-251, in the experiment with CCRF-CEM and in the experiment with SNB-19 was > 100 µM (inactive) in each case. The GI50 in the experiment on NCI-H226, with SNB-75, with SF-295, in the experiment on MDA-MB-435, in the experiment with NCI/ADR-RES and in the experiment on UO-31 was > 100 µM (inactive) in each case. For the same compound, the GI50 with SF-539, in the experiment with M14, with RXF 393, with HT-29 and in the experiment with A549 was > 100 µM (inactive) throughout.

As to `CO/C(N)=C(C#N)/N=C/c1ccsc1`, the GI50 with SW-620 is 53.2 µM (inactive); in the experiment with T47D, 68.4 µM (inactive); with 786-0 it was 23.9 µM (inactive); in the experiment with SK-MEL-28 it was 85.5 µM (inactive); with U-251, 40 µM (inactive); in the experiment on CCRF-CEM it was 24 µM (inactive). Also, the GI50 in the experiment with SNB-19 was > 100 µM (inactive); with NCI-H226 it was > 100 µM (inactive); in the experiment with SNB-75, 56 µM (inactive); in the experiment with SF-295, > 100 µM (inactive); in the experiment with MDA-MB-435 it was 36.2 µM (inactive); in the experiment with NCI/ADR-RES it was > 100 µM (inactive). Moreover, the GI50 was > 100 µM (inactive) in the experiment with UO-31; 26.2 µM (inactive) in the experiment with SF-539; 29 µM (inactive) in the experiment with M14; 31.8 µM (inactive) in the experiment on RXF 393; 40.7 µM (inactive) with HT-29; > 100 µM (inactive) with A549.

Consider `CC(=O)NCCCCNCCCNC(C)=O`, for which the GI50 in the experiment on SW-620, in the experiment on T47D, in the experiment with 786-0, with SK-MEL-28, with U-251 and in the experiment on CCRF-CEM was > 100 µM (inactive) each time. Besides, the GI50 in the experiment on SNB-19, in the experiment with NCI-H226, with SNB-75, in the experiment on SF-295, in the experiment on MDA-MB-435 and in the experiment with NCI/ADR-RES was > 100 µM (inactive) in each case. Besides, the GI50 with UO-31, in the experiment with SF-539, in the experiment with M14, with RXF 393, with HT-29 and with A549 was > 100 µM (inactive) throughout.

With `O=C(CN1CCCC1)Nc1ccc2sc3ccccc3c(=O)c2n1`, the GI50 in the experiment on SW-620 was 4.97 µM (inactive); with T47D it was 30.1 µM (inactive); in the experiment on 786-0, 14.9 µM (inactive); in the experiment with SR, 24.9 µM (inactive); in the experiment on SK-MEL-28, 19.3 µM (inactive); in the experiment on U-251 it was 18.7 µM (inactive). Moreover, the GI50 was 10.5 µM (inactive) with CCRF-CEM; 32.7 µM (inactive) in the experiment with SNB-19; 19.7 µM (inactive) in the experiment with SNB-75; 22.6 µM (inactive) with SF-295; 14.7 µM (inactive) in the experiment with MDA-MB-435; 15.5 µM (inactive) in the experiment on NCI/ADR-RES. Besides, the GI50 with UO-31 is 14.2 µM (inactive); in the experiment on SF-539, 17.1 µM (inactive); in the experiment on M14, 24 µM (inactive); in the experiment on HT-29, 34 µM (inactive); in the experiment with A549 it was 16.6 µM (inactive).
